Experimental data: PubChem BioAssay AID1963959 (Molecular Pharmacology Branch, DTP, NCI, 2024)

Tested on: T-47D spheroids with HUVEC/MSC, viability
Experiment: Anticancer human tumor T-47D cell line growth inhibition [PI3K];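 also: spheroids exposed to agents for seven days before reading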;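 as to viability, T/C: percent of DMSO vehicle control luminescence so 100% = untreated growth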
Details: for IC50: curve of first compound; for viability, T/C: stronger effect = lower value
How it was run: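 We assembled tumor spheroids that included a stromal compartment of HUVEC and MSCs, then exposed them to targeted agents alone and together with PI3K pathway inhibitors. Concentration series descended by half-log from clinically achievable Cmax levels. Viability served as the endpoint.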

`CC(=O)c1c(C)c2cnc(Nc3ccc(N4CCNCC4)cn3)nc2n(C2CCCC2)c1=O` + CC(Nc1ncnc2nc[nH]c12)c1cc2cccc(Cl)c2c(=O)n1-c1ccccc1 was tested, and the IC50 (second compound 0.0316 µM) was > 100 nM, the IC50 (second compound 0.1 µM) was > 100 nM and the IC50 (second compound 0.316 µM) was > 100 nM. For the same molecule, the IC50 (second compound 1 µM) was > 100 nM, the IC50 (second compound 3.16 µM) was > 100 nM and the IC50 (second compound 10 µM) was > 100 nM. The viability, T/C (second compound 0.0316 µM, first compound 0.000316 µM) was 96%, the viability, T/C (second compound 0.0316 µM, first compound 0.001 µM) was 99% and the viability, T/C (second compound 0.0316 µM, first compound 0.00316 µM) was 100%. It also gave a viability, T/C (second compound 0.0316 µM, first compound 0.01 µM) of 91.2%, a viability, T/C (second compound 0.0316 µM, first compound 0.0316 µM) of 86.5% and a viability, T/C (second compound 0.0316 µM, first compound 0.1 µM) of 71.3%. The viability, T/C (second compound 0.1 µM, first compound 0.000316 µM) was 91.2%, the viability, T/C (second compound 0.1 µM, first compound 0.001 µM) was 90.2% and the viability, T/C (second compound 0.1 µM, first compound 0.00316 µM) was 96.1%. It also gave a viability, T/C (second compound 0.1 µM, first compound 0.01 µM) of 73.3%, a viability, T/C (second compound 0.1 µM, first compound 0.0316 µM) of 100% and a viability, T/C (second compound 0.1 µM, first compound 0.1 µM) of 83.6%. The viability, T/C (second compound 0.316 µM, first compound 0.000316 µM) was 92.8%, the viability, T/C (second compound 0.316 µM, first compound 0.001 µM) was 93.7% and the viability, T/C (second compound 0.316 µM, first compound 0.00316 µM) was 82%. For the same molecule, the viability, T/C (second compound 0.316 µM, first compound 0.01 µM) was 90.6%, the viability, T/C (second compound 0.316 µM, first compound 0.0316 µM) was 86.9% and the viability, T/C (second compound 0.316 µM, first compound 0.1 µM) was 84%. For the same molecule, the viability, T/C (second compound 1 µM, first compound 0.000316 µM) was 80.1%, the viability, T/C (second compound 1 µM, first compound 0.001 µM) was 73.8% and the viability, T/C (second compound 1 µM, first compound 0.00316 µM) was 79.6%. The viability, T/C (second compound 1 µM, first compound 0.01 µM) was 89%, the viability, T/C (second compound 1 µM, first compound 0.0316 µM) was 76.6% and the viability, T/C (second compound 1 µM, first compound 0.1 µM) was 80.6%. The viability, T/C (second compound 3.16 µM, first compound 0.000316 µM) was 81.2%, the viability, T/C (second compound 3.16 µM, first compound 0.001 µM) was 88.6% and the viability, T/C (second compound 3.16 µM, first compound 0.00316 µM) was 100%. The viability, T/C (second compound 3.16 µM, first compound 0.01 µM) was 85.1%, the viability, T/C (second compound 3.16 µM, first compound 0.0316 µM) was 85.8% and the viability, T/C (second compound 3.16 µM, first compound 0.1 µM) was 69.8%. The viability, T/C (second compound 10 µM, first compound 0.000316 µM) was 88.4%, the viability, T/C (second compound 10 µM, first compound 0.001 µM) was 76.3% and the viability, T/C (second compound 10 µM, first compound 0.00316 µM) was 78%. The viability, T/C (second compound 10 µM, first compound 0.01 µM) was 70.8%, the viability, T/C (second compound 10 µM, first compound 0.0316 µM) was 80.6% and the viability, T/C (second compound 10 µM, first compound 0.1 µM) was 65.2%.

`Cn1cnc2c(F)c(Nc3ccc(Br)cc3Cl)c(C(=O)NOCCO)cc21` + COc1c(OCCCN2CCOCC2)ccc2c3n(c(=NC(=O)c4cnc(N)nc4)nc12)CCN3 was tested, and the IC50 (second compound 0.00316 µM) was > 3000 nM, the IC50 (second compound 0.01 µM) was > 3000 nM and the IC50 (second compound 0.0316 µM) was > 3000 nM. For the same molecule, the IC50 (second compound 0.1 µM) was < 9.49 nM, the IC50 (second compound 0.316 µM) was < 9.49 nM and the IC50 (second compound 1 µM) was < 9.49 nM. For the same molecule, the viability, T/C (second compound 0.00316 µM, first compound 0.00949 µM) was 97.1%, the viability, T/C (second compound 0.00316 µM, first compound 0.03 µM) was 88.8% and the viability, T/C (second compound 0.00316 µM, first compound 0.0949 µM) was 88.3%. The viability, T/C (second compound 0.00316 µM, first compound 0.3 µM) was 94.8%, the viability, T/C (second compound 0.00316 µM, first compound 0.949 µM) was 92.5% and the viability, T/C (second compound 0.00316 µM, first compound 3 µM) was 76.6%. It also gave a viability, T/C (second compound 0.01 µM, first compound 0.00949 µM) of 89.5%, a viability, T/C (second compound 0.01 µM, first compound 0.03 µM) of 77.5% and a viability, T/C (second compound 0.01 µM, first compound 0.0949 µM) of 102%. It also gave a viability, T/C (second compound 0.01 µM, first compound 0.3 µM) of 66%, a viability, T/C (second compound 0.01 µM, first compound 0.949 µM) of 85.6% and a viability, T/C (second compound 0.01 µM, first compound 3 µM) of 92.9%. It also gave a viability, T/C (second compound 0.0316 µM, first compound 0.00949 µM) of 64%, a viability, T/C (second compound 0.0316 µM, first compound 0.03 µM) of 51.7% and a viability, T/C (second compound 0.0316 µM, first compound 0.0949 µM) of 64.6%. For the same molecule, the viability, T/C (second compound 0.0316 µM, first compound 0.3 µM) was 57.8%, the viability, T/C (second compound 0.0316 µM, first compound 0.949 µM) was 71.9% and the viability, T/C (second compound 0.0316 µM, first compound 3 µM) was 67.7%. The viability, T/C (second compound 0.1 µM, first compound 0.00949 µM) was 41.4%, the viability, T/C (second compound 0.1 µM, first compound 0.03 µM) was 34.3% and the viability, T/C (second compound 0.1 µM, first compound 0.0949 µM) was 32.9%. For the same molecule, the viability, T/C (second compound 0.1 µM, first compound 0.3 µM) was 38.7%, the viability, T/C (second compound 0.1 µM, first compound 0.949 µM) was 41.5% and the viability, T/C (second compound 0.1 µM, first compound 3 µM) was 35.4%. It also gave a viability, T/C (second compound 0.316 µM, first compound 0.00949 µM) of 12.8%, a viability, T/C (second compound 0.316 µM, first compound 0.03 µM) of 16.8% and a viability, T/C (second compound 0.316 µM, first compound 0.0949 µM) of 16.7%. It also gave a viability, T/C (second compound 0.316 µM, first compound 0.3 µM) of 13.7%, a viability, T/C (second compound 0.316 µM, first compound 0.949 µM) of 20.4% and a viability, T/C (second compound 0.316 µM, first compound 3 µM) of 14.4%. For the same molecule, the viability, T/C (second compound 1 µM, first compound 0.00949 µM) was 6.16%, the viability, T/C (second compound 1 µM, first compound 0.03 µM) was 4.64% and the viability, T/C (second compound 1 µM, first compound 0.0949 µM) was 7.54%. The viability, T/C (second compound 1 µM, first compound 0.3 µM) was 7.14%, the viability, T/C (second compound 1 µM, first compound 0.949 µM) was 7.29% and the viability, T/C (second compound 1 µM, first compound 3 µM) was 6.05%.
